From patent publication US7531575B2, “Method of modulating cellular activity and agents useful for same” (Eberhard-Karls-Universität Tübingin, priority 2002, dated 2009)

How the values were obtained:
Assay type in all cases: cell-based, murine
[1] = tested on: iNOS mRNA; assay: iNOS mRNA Northern blot, IFN-γ-stimulated N9 microglia; conditions: N9 cells, IFN-γ 200 u ml, 24 h, tranilast 300 μM
Description: (§1) Tranilast was a generous gift of Kissei Pharmaceuticals (Nagano, Japan). Murine recombinant IFN-γ was purchased from Boehringer (Mannheim, Germany). Dexamethasone (DEX) was obtained from Sigma (Deisenhofen, Germany). N9 murine microglial cells were a kind gift from P. Ricciardi-Castagnoli (Milano, Italy) (Righi, M., Mori, L., De Libero, G., Sironi, M., Biondi, A., Mantovani, A., Donini, S. D. and Ricciardi-Castagnoli, P. Eur J Immunol 19(8):1443-1448, 1989). The cells were cultured in Dulbecco's modified Eagle's medium (DMEM) supplemented with 10% foetal calf serum (FCS), 2 mM glutamine and penicillin ([…])/streptomycin (100 μg ml), and maintained at 37° C. in an atmosphere of 5% CO2. Viability was assessed by crystal violet staining.
Total RNA was isolated using the RNeasy kit (Qiagen, Hilden, Germany). Total RNA ([…]) was separated on 1.2% agarose gels and blotted onto nylon membranes (Amersham). The filters were hybridized according to standard procedures (Platten, M., Wild-Bode, C., Wick, W., Leitlein, J., Dichgans, J., and Weller, M., Int. J. Cancer, 93:53-61, 2001) with a ^32P-labelled murine cDNA probe for iNOS. For the generation of the iNOS probe, N9 cells were stimulated with IFN-γ ([…]) for 24 h. […]

[2] = tested on: iNOS; assay: iNOS protein immunoblot, IFN-γ-stimulated N9 microglia; conditions: N9 cells, IFN-γ 200 u ml, 24 h, tranilast 300 μM
Description: as §1
For the preparation of whole cell lysates, the cells were rinsed in phosphate-buffered saline (PBS), harvested, centrifuged at 1200×g, lysed in 0.1 M TRIS-HCl (pH 7.2) containing 0.1% NP40, 0.1 mM EDTA and 5 μg ml PMSF for 40 min on ice, and centrifuged at 10,000×g for 10 min. Protein concentration was determined using Biorad reagents with photometric analysis. Proteins (20 μg lane) were separated by 10-12% SDS-PAGE and electroblotted on nitrocellulose. qual protein loading was controlled by Ponceau S staining. […]

[3] = tested on: iNOS mRNA; assay: iNOS mRNA Northern blot, LPS-stimulated N9 microglia; conditions: N9 cells, LPS 10 μg/mL, TNL 300 μM pretreatment 1 hr
Source text: (§2) TNL was a generous gift of Kissei Pharmaceuticals, LPC (Escherichia coli, 0127:BS), phorbol 12-myristate 13-acetate (PMA) and dexamethasone (DEX) were obtained from Sigma, BAY 11-7082 (BAY), NF-κB SN50 inhibitory peptide (SN50), GF 109203X (GFX) and rottlerin (ROT) were purchased from Biomol. PD098059 (PD) was obtained from Calbiochem. Purified murine interferon-γ (IFN-γ) was purchased from Roche Diagnostics. N9 murine microglial cells were a kind gift from P. Ricciardi-Castagnoli (Righi, M. et al. 1989 supra). Cells were cultured in Dulbecco's modified Eagle's medium (DMEM) supplemented with 10% fetal calf serum (FCS), 2 mM glutamine, penicillin (100 unit/mL) and streptomycin (100 μg/mL) and maintained at 37° in an atmosphere of 5% CO2. Viability was assessed by crystal violet staining.
RNA was isolated using the RNeasy™ kit (Qiagen). Total RNA (10 μg) was separated on 1.2% agarose gels and blotted onto nylon membranes (Amersham). The filters were hybridized according to standard procedures with a ^32P-labeled murine cDNA probe for iNOS. For the generation of the iNOS probe, N9 cells were stimulated with IFN-γ (200 unit/mL) for 24 hr. […]

[4] = tested on: MARCKS; assay: phospho-MARCKS immunoblot in N9 microglia; conditions: N9 cells, co-exposed to TNL (pre-incubation 1 hr)
Source text: as §2
(§3) For the preparation of whole cell lysates, the cells were lysed in 0.1 M Tris-HCl (pH 7.2) containing 0.1% NP40, 0.1 mM EDTA and 5 μg/mL phenylmethylsulphonyl fluoride. Twenty micrograms protein was separated by 10-12% SDS-PAGE and electroblotted on nitrocellulose membrane. Equal loading was controlled by Ponceau S staining. […]

[5] = tested on: ERK-2; assay: phospho-ERK-1/2 immunoblot, LPS-stimulated N9 microglia: ERK-2; conditions: N9 cells, LPS 10 μg/mL 10 min
Source text: as §2, §3

[6] = tested on: iNOS; assay: iNOS protein immunoblot, LPS-stimulated N9 microglia; conditions: TNL 300 μM
Source text: as §2
For the preparation of whole cell lysates, the cells were lysed in 0.1 M Tris-HCl (pH 7.2) containing 0.1% NP40, 0.1 mM EDTA and 5 μg/mL phenylmethylsulphonyl fluoride. Twenty micrograms protein was separated by 10-12% SDS-PAGE and electroblotted on nitrocellulose membrane. Equal loading was controlled by Ponceau S staining. Immunodetection was performed using the following antibodies: anti-iNOS rabbit polyclonal antibody (1:1000, Cayman), antiphospho-IκBα mouse monoclonal antibody (1:1000), anti-PKCδ mouse monoclonal antibody (1:2000), antiphospho-MARCKS rabbit polyclonal antibody (1:1000), antiphospho-ERK-1/2, antiphospho-AKT, antiphospho-p38 mouse monoclonal antibodies (1:2000), anti-ERK-1/2, anti-AKT mouse monoclonal antibodies (1:500, all from Signal Transduction Laboratories). Bands were visualized using horseradish peroxidase-conjugated anti-rabbit IgG (1:4000 SantaCruz) or anti-mouse IgG (1:4000, Amersham).

[7] = tested on: p38 MAPK; assay: phospho-p38 immunoblot, LPS-stimulated N9 microglia; conditions: N9 cells, LPS 10 μg/mL 10 min, TNL pre-incubation 1 hr
Source text: as §2, §3

## COc1ccc(/C=C/C(=O)Nc2ccccc2C(=O)O)cc1OC [tranilast, 2-[[3-(3,4-dimethoxyphenyl)-1-oxo-2-propenyl]amino]benzoic acid]
[1]
  IFN-γ-induced iNOS mRNA expression: greatly suppressed
[2]
  IFN-γ-induced iNOS protein expression: greatly suppressed
[3]; 4 and 8 hr
  LPS induction of iNOS mRNA: unaffected
[3]; 16 hr
  LPS induction of iNOS mRNA: no further increase
[4]
  MARCKS phosphorylation: inhibited
[5]; 300 μM TNL
  reduction of phospho-ERK-2 (densitometry): 80%
[5]; TNL pre-incubation 1 hr, concentration series
  ERK-2 phosphorylation after LPS: concentration-dependent inhibition
[6]; N9 cells, LPS 10 μg/mL
  accumulation of iNOS protein after LPS: suppressed
[6]; PMA 100 nM 15 min, LPS 10 μg/mL 24 hr
  PMA superinduction of iNOS protein in LPS-stimulated cells: abolished
[7]
  cellular phospho-p38 levels after LPS: did not alter
